The values below come from ChEMBL document CHEMBL1201862, “PubChem BioAssay data set” (2004).

Test systems include SF-295; CCRF-CEM; UO-31; NCI-H226; UACC-257; Malme-3M; OVCAR-8; U-251; UACC-62; SF-539; SNB-78; ACHN; NCI-H522; K562; CAKI-1; DU-145; SR; MDA-N; PC-3; Hs-578T.
Common to all, as to experiment: growth of human tumour cells (NCI), 48 h

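Assay format: 96-well plates, 48-hour exposure. GI50: concentration for 50% inhibition of growth.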 Active and inactive are the calls of the source. No stated cut-off is given here; in the data, active = GI50 up to about 1.1 µM and inactive = higher.

Take `C[C@@H](N[C@H]1CCC[C@@H]1O)c1ccccc1.C[C@@H](N[C@H]1CCC[C@H]1O)c1ccccc1`: the GI50 is 40.4 µM (inactive) in the experiment on SF-295; 89.9 µM (inactive) in the experiment with CCRF-CEM; 50.5 µM (inactive) in the experiment on UO-31; 19.9 µM (inactive) in the experiment with NCI-H226; > 100 µM (inactive) in the experiment on UACC-257; > 100 µM (inactive) in the experiment on Malme-3M. The GI50 in the experiment on OVCAR-8 is > 100 µM (inactive); with U-251 it was 48.1 µM (inactive); in the experiment with UACC-62, 75 µM (inactive); with SF-539, > 100 µM (inactive); with SNB-78, > 100 µM (inactive); with ACHN it was > 100 µM (inactive). Besides, the GI50 in the experiment with NCI-H522 is > 100 µM (inactive); in the experiment with K562 it was 44.9 µM (inactive).
Turning to `C/C=C/C(=O)Oc1cccc2cccnc12`, the GI50 with SF-295 is 12.1 µM (inactive); in the experiment with CCRF-CEM it was 3.7 µM (inactive); in the experiment on UO-31, 6.97 µM (inactive); in the experiment with NCI-H226, 25.1 µM (inactive); in the experiment with UACC-257 it was 4.62 µM (inactive); in the experiment on Malme-3M, 1.45 µM (inactive). The GI50 is 4.61 µM (inactive) in the experiment with OVCAR-8; 1.14 µM (inactive) in the experiment on U-251; 32.6 µM (inactive) with CAKI-1; 6.98 µM (inactive) with UACC-62; 7.83 µM (inactive) in the experiment with SF-539; 27.4 µM (inactive) with SNB-78. In addition, the GI50 was 18.2 µM (inactive) in the experiment on ACHN, 1.82 µM (inactive) with NCI-H522 and 6.08 µM (inactive) in the experiment with K562.
For the molecule `COc1cc(CC2c3cc(OC)c(OC)cc3CCN2C)c(Oc2cc3c(cc2OC)-c2c(OC)c(OC)c(OC)c4c2C(C3)N(C)CC4)cc1OC` (stereo not drawn), the GI50 is 14.6 µM (inactive) in the experiment on SF-295; 16.4 µM (inactive) in the experiment with CCRF-CEM; 7.93 µM (inactive) with UO-31; 17.2 µM (inactive) in the experiment with NCI-H226; 6.31 µM (inactive) with UACC-257; 2.49 µM (inactive) in the experiment on Malme-3M. Moreover, the GI50 with OVCAR-8 was 14.9 µM (inactive); with U-251, 12.6 µM (inactive); in the experiment with CAKI-1, 14.8 µM (inactive); with UACC-62, 15.2 µM (inactive); in the experiment with SF-539, 13 µM (inactive); with SNB-78 it was 17.4 µM (inactive). In addition, the GI50 in the experiment with ACHN is 15.8 µM (inactive); in the experiment on NCI-H522, 11.7 µM (inactive); in the experiment on K562, 2.63 µM (inactive).
`CCCc1ccc(NCc2cc(OC)c(OC)c(OC)c2)cc1`: the GI50 in the experiment with CCRF-CEM was 17.8 µM (inactive); in the experiment on UO-31 it was 24.7 µM (inactive); with UACC-257, 22.4 µM (inactive); in the experiment on Malme-3M, 19.4 µM (inactive); in the experiment with OVCAR-8, 35.3 µM (inactive); in the experiment with U-251 it was 29.6 µM (inactive). The GI50 in the experiment with UACC-62 is 26.9 µM (inactive); in the experiment with SF-539, 28.3 µM (inactive); in the experiment with SNB-78, 56.9 µM (inactive); with ACHN it was 30.6 µM (inactive); with K562 it was 12.1 µM (inactive).
In the case of `Cc1cccc(=O)c([O-])c1.Cc1cccc(=O)c([O-])c1.[Bi+3].[Cl-]`, the GI50 in the experiment with SF-295 was 10.4 µM (inactive); in the experiment with CCRF-CEM, 2.18 µM (inactive); in the experiment with UO-31, 11.5 µM (inactive); in the experiment with NCI-H226, 18.1 µM (inactive); with UACC-257, 8.32 µM (inactive); in the experiment with Malme-3M it was 11.9 µM (inactive). Moreover, the GI50 was 3.72 µM (inactive) with OVCAR-8; 11.5 µM (inactive) in the experiment with U-251; 15.5 µM (inactive) in the experiment with CAKI-1; 7.96 µM (inactive) in the experiment with UACC-62; 12 µM (inactive) with SF-539; 24 µM (inactive) with SNB-78. Moreover, the GI50 was 7.31 µM (inactive) with ACHN, 2.03 µM (inactive) with NCI-H522 and 4.46 µM (inactive) with K562.
On to `CC(O)C1(CNc2cc(Cl)nc(N)n2)CCCCC1` (stereo not drawn), for which the GI50 in the experiment with SF-295 was > 100 µM (inactive); in the experiment with CCRF-CEM, 97.5 µM (inactive); in the experiment with UO-31, 59.2 µM (inactive); in the experiment on NCI-H226 it was > 100 µM (inactive); with UACC-257 it was 84.9 µM (inactive); with Malme-3M, > 100 µM (inactive). The GI50 is > 100 µM (inactive) with OVCAR-8; > 100 µM (inactive) in the experiment on DU-145; > 100 µM (inactive) in the experiment on U-251; > 100 µM (inactive) in the experiment on CAKI-1; > 100 µM (inactive) in the experiment on UACC-62; 66.1 µM (inactive) with SR. In addition, the GI50 with MDA-N is > 100 µM (inactive); in the experiment on SF-539, > 100 µM (inactive); in the experiment on ACHN, > 100 µM (inactive); in the experiment with PC-3, 65.6 µM (inactive); in the experiment on Hs-578T, > 100 µM (inactive); in the experiment on NCI-H522, 55.7 µM (inactive). Besides, in the experiment on K562, the GI50 is 69.3 µM (inactive).
For `O=C1CSC(c2ccc(Cl)cc2)N1c1ccc(Oc2ccc(Cl)cc2)c(Cl)c1` (stereo not drawn), the GI50 in the experiment with SF-295 was 16.3 µM (inactive); in the experiment on CCRF-CEM, 5.46 µM (inactive); with UO-31, 8.26 µM (inactive); with NCI-H226, 17.4 µM (inactive); in the experiment on UACC-257, 18.2 µM (inactive); in the experiment on Malme-3M, 7.66 µM (inactive). The GI50 in the experiment with OVCAR-8 is 17.5 µM (inactive); in the experiment on DU-145, 13.1 µM (inactive); in the experiment on U-251, 16.6 µM (inactive); with CAKI-1, 13.3 µM (inactive); in the experiment on UACC-62, 15.4 µM (inactive); with SR, 18.4 µM (inactive). The GI50 was 14.5 µM (inactive) in the experiment with MDA-N; 14.6 µM (inactive) in the experiment with SF-539; 17.4 µM (inactive) in the experiment on ACHN; 15.2 µM (inactive) in the experiment on PC-3; 11 µM (inactive) in the experiment with Hs-578T; 7.13 µM (inactive) in the experiment with NCI-H522. Also, the GI50 in the experiment with K562 is 17.3 µM (inactive).
For the molecule `O=C(NC(OCc1ccccc1)(C(F)(F)F)C(F)(F)F)OCc1ccccc1`, the GI50 in the experiment on SF-295 was 17.6 µM (inactive); in the experiment on CCRF-CEM, 16.1 µM (inactive); with UO-31, 11.2 µM (inactive); in the experiment with NCI-H226, 14.1 µM (inactive); in the experiment with UACC-257, 14.2 µM (inactive); in the experiment with Malme-3M it was 18 µM (inactive). The GI50 in the experiment on OVCAR-8 is 16.3 µM (inactive); with DU-145, 16.6 µM (inactive); with U-251, 14.1 µM (inactive); in the experiment with CAKI-1, 14.4 µM (inactive); with UACC-62, 13.9 µM (inactive); in the experiment on SR, 12 µM (inactive). Besides, the GI50 was 15.2 µM (inactive) in the experiment on MDA-N; 17.3 µM (inactive) with SF-539; 15.7 µM (inactive) in the experiment on ACHN; 13.8 µM (inactive) in the experiment with PC-3; 13.9 µM (inactive) in the experiment with Hs-578T; 13.6 µM (inactive) in the experiment on NCI-H522. In the experiment with K562, the GI50 was 17.1 µM (inactive).
With `CCCCCOC(=O)c1cc2cc(CCl)ccc2oc1=O`, the GI50 in the experiment on SF-295 was 13.7 µM (inactive); with CCRF-CEM, 13.1 µM (inactive); in the experiment with UO-31, 2.06 µM (inactive); with NCI-H226, 15.7 µM (inactive); in the experiment on UACC-257 it was 1.09 µM (active); in the experiment with Malme-3M, 0.274 µM (active). Besides, the GI50 with OVCAR-8 was 17.9 µM (inactive); with DU-145, 3.86 µM (inactive); with U-251, 16.8 µM (inactive); with CAKI-1 it was 1.75 µM (inactive); with UACC-62 it was 1.64 µM (inactive); with SR it was 8.07 µM (inactive). Further, the GI50 with MDA-N was 2.92 µM (inactive); with SF-539, 27.6 µM (inactive); with ACHN, 0.537 µM (active); with PC-3, 4.07 µM (inactive); with Hs-578T, 7.23 µM (inactive); with NCI-H522, 0.213 µM (active). In the experiment with K562, the GI50 is 3.79 µM (inactive).
For the molecule `C=CC1(C)OC2(CCN(C(=O)OCC)CC2)OC1C` (stereo not drawn), the GI50 in the experiment on SF-295, in the experiment with CCRF-CEM, in the experiment with UO-31, in the experiment on NCI-H226, in the experiment with UACC-257 and with Malme-3M was > 100 µM (inactive) each time. Besides, the GI50 in the experiment with OVCAR-8, with DU-145, in the experiment on U-251, in the experiment with CAKI-1, with UACC-62 and in the experiment on SR was > 100 µM (inactive) each time. Besides, the GI50 in the experiment with MDA-N, in the experiment with SF-539, with ACHN, in the experiment with PC-3, in the experiment on Hs-578T and with NCI-H522 was > 100 µM (inactive) each time. The GI50 in the experiment on K562 is 45.7 µM (inactive).
In the case of `CN(CCC#N)c1ccc(/C=C2\SC(=S)NC2=O)cc1`, the GI50 is 35.9 µM (inactive) in the experiment with SF-295; 6.75 µM (inactive) in the experiment with CCRF-CEM; 27.2 µM (inactive) in the experiment on UO-31; > 100 µM (inactive) with NCI-H226; > 100 µM (inactive) in the experiment with UACC-257; > 100 µM (inactive) in the experiment on Malme-3M. The GI50 in the experiment on OVCAR-8 was > 100 µM (inactive); with DU-145, 73.6 µM (inactive); in the experiment with U-251 it was 32.8 µM (inactive); in the experiment with CAKI-1 it was > 100 µM (inactive); in the experiment with UACC-62 it was 19.8 µM (inactive); in the experiment with SR, 24.3 µM (inactive). In addition, the GI50 with MDA-N was 53.6 µM (inactive); with SF-539 it was 49.4 µM (inactive); in the experiment on ACHN, 62.4 µM (inactive); in the experiment on PC-3 it was 34.3 µM (inactive); in the experiment on Hs-578T, 33.3 µM (inactive); in the experiment on NCI-H522, 71.1 µM (inactive). Moreover, in the experiment with K562, the GI50 is 45.4 µM (inactive).
For the molecule `O=C1OC(C2Cc3ccc4ccccc4c3C2=O)c2ccccc21` (stereo not drawn), the GI50 in the experiment on SF-295 is 32.4 µM (inactive); in the experiment on CCRF-CEM it was 31 µM (inactive); in the experiment on UO-31, 71.3 µM (inactive); in the experiment on NCI-H226, 19.5 µM (inactive); in the experiment with UACC-257, 70.8 µM (inactive); in the experiment on Malme-3M, 50.1 µM (inactive). The GI50 is 35.6 µM (inactive) in the experiment with OVCAR-8; > 100 µM (inactive) with DU-145; 32.7 µM (inactive) in the experiment with U-251; 61.9 µM (inactive) in the experiment with CAKI-1; 33.7 µM (inactive) in the experiment on UACC-62; 35.2 µM (inactive) in the experiment with SR. In addition, the GI50 is 57.5 µM (inactive) with MDA-N; 21.6 µM (inactive) in the experiment on SF-539; 53.1 µM (inactive) in the experiment with ACHN; 48.8 µM (inactive) in the experiment with PC-3; 31.6 µM (inactive) in the experiment with Hs-578T; 36.9 µM (inactive) in the experiment on NCI-H522. Moreover, the GI50 in the experiment with K562 was 57.7 µM (inactive).
